Results published in patent publication US11053204B2, “Pyrimidinyloxy benzene derivatives as herbicides” (FMC Corporation, priority 2015, dated 2021).

Assays:
Format in all cases: in vivo
[1] = test system: pigweed (Amaranthus retroflexus); assay: Test A preemergence, visual injury rating
Method in brief: (§1)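 Visual 0–100 rating (100 = complete control) taken about 10 d post-treatment relative to untreated checks. Preemergence: directed soil spray on sown loam/sand pots. Postemergence: seedlings 2–10 cm, 1–2 leaf. Non-phytotoxic solvent formulation with surfactant.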

[2] = test system: Italian ryegrass (Lolium multiflorum); assay: Test A preemergence, visual injury rating
Method in brief: as §1

[3] = test system: barnyardgrass (Echinochloa crus-galli); assay: Test A preemergence, visual injury rating; conditions: for Plant response rating, Barnyardgrass: 31 g ai/ha, 0 to 100 scale, 0 no effect, 100 complete control; for Barnyardgrass plant response rating: 125 g ai/ha, 0 to 100 scale (0 no effect, 100 complete control)
Method in brief: as §1

[4] = test system: ragweed (common ragweed, Ambrosia elatior); assay: Test A preemergence, visual injury rating
Method in brief: as §1

[5] = test system: giant foxtail (Setaria faberii); assay: Test A preemergence, visual injury rating
Method in brief: as §1

[6] = test system: kochia (Kochia scoparia); assay: Test A preemergence, visual injury rating
Method in brief: as §1

[7] = test system: wheat (Triticum aestivum); assay: Test A postemergence, visual injury rating; conditions: 0 to 100 scale, 0 is no effect, 100 is complete control, approximately 10 days
Method in brief: as §1

[8] = test system: pigweed (Amaranthus retroflexus); assay: Test A postemergence, visual injury rating; conditions: 0 to 100 scale, 0 is no effect, 100 is complete control, approximately 10 days
Method in brief: as §1

[9] = test system: blackgrass (Alopecurus myosuroides); assay: Test A postemergence, visual injury rating; conditions: 0 to 100 scale, 0 is no effect, 100 is complete control, approximately 10 days
Method in brief: as §1

[10] = test system: Italian ryegrass (Lolium multiflorum); assay: Test A postemergence, visual injury rating; conditions: 0 to 100 scale, 0 is no effect, 100 is complete control, approximately 10 days
Method in brief: as §1

[11] = test system: barnyardgrass (Echinochloa crus-galli); assay: Test A postemergence, visual injury rating; conditions: 0 to 100 scale, 0 is no effect, 100 is complete control, approximately 10 days
Method in brief: as §1

[12] = test system: galium (catchweed bedstraw, Galium aparine); assay: Test A postemergence, visual injury rating; conditions: 0 to 100 scale, 0 is no effect, 100 is complete control, approximately 10 days
Method in brief: as §1

[13] = test system: corn (Zea mays); assay: Test A postemergence, visual injury rating; conditions: 0 to 100 scale, 0 is no effect, 100 is complete control, approximately 10 days
Method in brief: as §1

[14] = test system: ragweed (common ragweed, Ambrosia elatior); assay: Test A postemergence, visual injury rating; conditions: 0 to 100 scale, 0 is no effect, 100 is complete control, approximately 10 days
Method in brief: as §1

[15] = test system: giant foxtail (Setaria faberii); assay: Test A postemergence, visual injury rating; conditions: 0 to 100 scale, 0 is no effect, 100 is complete control, approximately 10 days
Method in brief: as §1

[16] = test system: kochia (Kochia scoparia); assay: Test A postemergence, visual injury rating; conditions: 0 to 100 scale, 0 is no effect, 100 is complete control, approximately 10 days
Method in brief: as §1

[17] = test system: ducksalad (Heteranthera limosa); assay: Test B flooded paddy test, plant response rating; conditions: 250 g ai/ha; Flood; scale of 0 to 100 where 0 is no effect and 100 is complete control; 13 to 15 days
Method in brief: (§2)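 Under a constant 3 cm flood, test compounds went directly into the paddy water. Following 13 to 15 days of greenhouse growth, treated species and controls were compared by eye.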

[18] = test system: sedge, umbrella (small-flower umbrella sedge, Cyperus difformis); assay: Test B flooded paddy test, plant response rating; conditions: 250 g ai/ha; Flood; scale of 0 to 100 where 0 is no effect and 100 is complete control; 13 to 15 days
Method in brief: as §2

[19] = test system: barnyardgrass (Echinochloa crus-galli); assay: Test B flooded paddy test, plant response rating; conditions: 250 g ai/ha; Flood; scale of 0 to 100 where 0 is no effect and 100 is complete control; 13 to 15 days
Method in brief: as §2

[20] = test system: rice (Oryza sativa); assay: Test B flooded paddy test, plant response rating; conditions: 250 g ai/ha; Flood; scale of 0 to 100 where 0 is no effect and 100 is complete control; 13 to 15 days
Method in brief: as §2

[21] = 31 g ai/ha, 0 to 100 scale, 0 no effect, 100 complete control
[22] = 125 g ai/ha, 0 to 100 scale (0 no effect, 100 complete control)

Cc1cccc(Oc2ncc(Cl)cn2)c1C(=O)OCCC(F)(F)F [Compound 99]
Plant response rating, Pigweed [1, 21]: 50
Plant response rating, Pigweed [1, 22]: 90
Plant response rating, Ryegrass, Italian [2, 21]: 0
Plant response rating, Ryegrass, Italian [2, 22]: 30
Plant response rating, Barnyardgrass [3]: 70
Barnyardgrass plant response rating [3]: 100
Plant response rating, Ragweed [4, 21]: 0
Plant response rating, Ragweed [4, 22]: 10
Plant response rating, Foxtail, Giant [5, 21]: 90
Plant response rating, Foxtail, Giant [5, 22]: 100
Plant response rating, Kochia [6, 21]: 40
Plant response rating, Kochia [6, 22]: 80
Wheat plant response rating ([7]; 31 g ai/ha): 0
Wheat plant response rating ([7]; 125 g ai/ha): 30
Pigweed plant response rating ([8]; 31 g ai/ha): 10
Pigweed plant response rating ([8]; 125 g ai/ha): 40
Blackgrass plant response rating ([9]; 31 g ai/ha): 30
Blackgrass plant response rating ([9]; 125 g ai/ha): 80
Ryegrass, Italian plant response rating ([10]; 31 g ai/ha): 0
Ryegrass, Italian plant response rating ([10]; 125 g ai/ha): 50
Barnyardgrass plant response rating ([11]; 31 g ai/ha): 30
Barnyardgrass plant response rating ([11]; 125 g ai/ha): 80
Galium plant response rating ([12]; 31 g ai/ha): 20
Galium plant response rating ([12]; 125 g ai/ha): 70
Corn plant response rating ([13]; 31 g ai/ha): 0
Corn plant response rating ([13]; 125 g ai/ha): 50
Ragweed plant response rating ([14]; 31 g ai/ha): 10
Ragweed plant response rating ([14]; 125 g ai/ha): 30
Foxtail, Giant plant response rating ([15]; 31 g ai/ha): 50
Foxtail, Giant plant response rating ([15]; 125 g ai/ha): 90
Kochia plant response rating ([16]; 31 g ai/ha): 20
Kochia plant response rating ([16]; 125 g ai/ha): 40
Plant response rating, Ducksalad [17]: 100
Plant response rating, Sedge, Umbrella [18]: 90
Plant response rating, Barnyardgrass [19]: 60
Plant response rating, Rice [20]: 40

CCCCOC(=O)c1c(Br)cccc1Oc1ncc(Cl)cn1 [Compound 100]
Plant response rating, Pigweed [1, 21]: 0
Plant response rating, Pigweed [1, 22]: 60
Plant response rating, Ryegrass, Italian [2, 21]: 0
Plant response rating, Ryegrass, Italian [2, 22]: 0
Plant response rating, Barnyardgrass [3]: 40
Barnyardgrass plant response rating [3]: 100
Plant response rating, Ragweed [4, 21]: 0
Plant response rating, Ragweed [4, 22]: 0
Plant response rating, Foxtail, Giant [5, 21]: 50
Plant response rating, Foxtail, Giant [5, 22]: 100
Plant response rating, Kochia [6, 21]: 0
Plant response rating, Kochia [6, 22]: 0
Wheat plant response rating ([7]; 31 g ai/ha): 0
Wheat plant response rating ([7]; 125 g ai/ha): 0
Pigweed plant response rating ([8]; 31 g ai/ha): 30
Pigweed plant response rating ([8]; 125 g ai/ha): 70
Blackgrass plant response rating ([9]; 31 g ai/ha): 0
Blackgrass plant response rating ([9]; 125 g ai/ha): 40
Ryegrass, Italian plant response rating ([10]; 31 g ai/ha): 0
Ryegrass, Italian plant response rating ([10]; 125 g ai/ha): 20
Barnyardgrass plant response rating ([11]; 31 g ai/ha): 10
Barnyardgrass plant response rating ([11]; 125 g ai/ha): 50
Galium plant response rating ([12]; 31 g ai/ha): 20
Galium plant response rating ([12]; 125 g ai/ha): 70
Corn plant response rating ([13]; 31 g ai/ha): 10
Corn plant response rating ([13]; 125 g ai/ha): 10
Ragweed plant response rating ([14]; 31 g ai/ha): 0
Ragweed plant response rating ([14]; 125 g ai/ha): 0
Foxtail, Giant plant response rating ([15]; 31 g ai/ha): 20
Foxtail, Giant plant response rating ([15]; 125 g ai/ha): 70
Kochia plant response rating ([16]; 31 g ai/ha): 60
Kochia plant response rating ([16]; 125 g ai/ha): 80
Plant response rating, Ducksalad [17]: 90
Plant response rating, Sedge, Umbrella [18]: 70
Plant response rating, Barnyardgrass [19]: 40
Plant response rating, Rice [20]: 0

CCCCCOC(=O)c1c(Br)cccc1Oc1ncc(Cl)cn1 [Compound 101]
Plant response rating, Pigweed [1, 21]: 0
Plant response rating, Pigweed [1, 22]: 0
Plant response rating, Ryegrass, Italian [2, 21]: 0
Plant response rating, Ryegrass, Italian [2, 22]: 0
Plant response rating, Barnyardgrass [3]: 0
Barnyardgrass plant response rating [3]: 10
Plant response rating, Ragweed [4, 21]: 0
Plant response rating, Ragweed [4, 22]: 0
Plant response rating, Foxtail, Giant [5, 21]: 0
Plant response rating, Foxtail, Giant [5, 22]: 40
Plant response rating, Kochia [6, 21]: 0
Plant response rating, Kochia [6, 22]: 0
Wheat plant response rating ([7]; 31 g ai/ha): 0
Wheat plant response rating ([7]; 125 g ai/ha): 0
Pigweed plant response rating ([8]; 31 g ai/ha): 20
Pigweed plant response rating ([8]; 125 g ai/ha): 60
Blackgrass plant response rating ([9]; 31 g ai/ha): 0
Blackgrass plant response rating ([9]; 125 g ai/ha): 0
Ryegrass, Italian plant response rating ([10]; 31 g ai/ha): 0
Ryegrass, Italian plant response rating ([10]; 125 g ai/ha): 10
Barnyardgrass plant response rating ([11]; 31 g ai/ha): 10
Barnyardgrass plant response rating ([11]; 125 g ai/ha): 20
Galium plant response rating ([12]; 31 g ai/ha): 10
Galium plant response rating ([12]; 125 g ai/ha): 40
Corn plant response rating ([13]; 31 g ai/ha): 0
Corn plant response rating ([13]; 125 g ai/ha): 0
Ragweed plant response rating ([14]; 31 g ai/ha): 0
Ragweed plant response rating ([14]; 125 g ai/ha): 0
Foxtail, Giant plant response rating ([15]; 31 g ai/ha): 0
Foxtail, Giant plant response rating ([15]; 125 g ai/ha): 20
Kochia plant response rating ([16]; 31 g ai/ha): 0
Kochia plant response rating ([16]; 125 g ai/ha): 20
Plant response rating, Ducksalad [17]: 0
Plant response rating, Sedge, Umbrella [18]: 0
Plant response rating, Barnyardgrass [19]: 0
Plant response rating, Rice [20]: 0

O=C(OCC(F)(F)C(F)F)c1c(Br)cccc1Oc1ncc(Cl)cn1 [Compound 103]
Plant response rating, Pigweed [1, 21]: 40
Plant response rating, Pigweed [1, 22]: 100
Plant response rating, Ryegrass, Italian [2, 21]: 0
Plant response rating, Ryegrass, Italian [2, 22]: 0
Plant response rating, Barnyardgrass [3]: 0
Barnyardgrass plant response rating [3]: 50
Plant response rating, Ragweed [4, 21]: 0
Plant response rating, Ragweed [4, 22]: 0
Plant response rating, Foxtail, Giant [5, 21]: 10
Plant response rating, Foxtail, Giant [5, 22]: 60
Plant response rating, Kochia [6, 21]: 0
Plant response rating, Kochia [6, 22]: 70
Wheat plant response rating ([7]; 31 g ai/ha): 0
Wheat plant response rating ([7]; 125 g ai/ha): 0
Pigweed plant response rating ([8]; 31 g ai/ha): 90
Pigweed plant response rating ([8]; 125 g ai/ha): 100
Blackgrass plant response rating ([9]; 31 g ai/ha): 0
Blackgrass plant response rating ([9]; 125 g ai/ha): 10
Ryegrass, Italian plant response rating ([10]; 31 g ai/ha): 0
Ryegrass, Italian plant response rating ([10]; 125 g ai/ha): 0
Barnyardgrass plant response rating ([11]; 31 g ai/ha): 0
Barnyardgrass plant response rating ([11]; 125 g ai/ha): 30
Galium plant response rating ([12]; 31 g ai/ha): 70
Galium plant response rating ([12]; 125 g ai/ha): 100
Corn plant response rating ([13]; 31 g ai/ha): 20
Corn plant response rating ([13]; 125 g ai/ha): 20
Ragweed plant response rating ([14]; 31 g ai/ha): 0
Ragweed plant response rating ([14]; 125 g ai/ha): 0
Foxtail, Giant plant response rating ([15]; 31 g ai/ha): 10
Foxtail, Giant plant response rating ([15]; 125 g ai/ha): 70
Kochia plant response rating ([16]; 31 g ai/ha): 70
Kochia plant response rating ([16]; 125 g ai/ha): 100
Plant response rating, Ducksalad [17]: 95
Plant response rating, Sedge, Umbrella [18]: 95
Plant response rating, Barnyardgrass [19]: 0
Plant response rating, Rice [20]: 20
